Laboratory results: publication PMC8284454, “In Vitro Profiling of Antitubercular Compounds by Rapid, Efficient, and Nondestructive Assays Using Autoluminescent Mycobacterium tuberculosis” (Antimicrobial Agents and Chemotherapy, 2021)
In brackets after ≈: the same amount, converted by molar mass. Entries after “also recorded” stand apart in the source; their conditions may differ. Like-named read-outs stand apart in the source and are kept apart here. Marks after values point to notes of the source that are not given here. *1 amine or outer side, *2 acyl side, *3 side chain or, on linkers, in order; H or OH if unused. Where a SMILES comes first, the peptide text is derived from it. Bridges are numbered along the chain shown (N, C = ends). [ ]: non-standard residue; d: D form. The star is where a group is joined. Phe(3R-OH) = O=C([C@@H](N[*:1])[C@H](O[*:3])c1ccccc1)[*:2]; NMeTrp(4-OMe) = CN[C@@H](Cc1c[nH]c2cccc(OC)c12)C(=O)O; NMeaIle = CC[C@@H](C)[C@H](NC)C(=O)O; NMe2Val = CC(C)[C@@H](C(=O)*)N(C)C; NMeT = CN[C@H](C(=O)O)[C@@H](C)O; NMeL = CN[C@@H](CC(C)C)C(=O)O; NMeV = CN[C@H](C(=O)O)C(C)C

What was measured:
[1] = system: J774-internalized M. tuberculosis (H37Rv); assay: intracellular activity by luminescence (EC90); format: cell-based, Mycobacterium tuberculosis; conditions: for EC90: RLU; for onset of growth inhibition of internalized M. tuberculosis: early = EC90 obtainable by day 3, late = EC90 obtainable by day 5 or later
[2] = system: macrophage-internalized M. tuberculosis; conditions: read-out: Literature reported EC90, cited from earlier work
[3] = system: M. tuberculosis H37Rv_LuxABCDE; assay: luminescence-based MBC assay (LMBCA) / time-kill; format: cell-based, Mycobacterium tuberculosis; conditions: for MBC / MBC (±SD) via luminescence / MBC (±SD) by luminescence on day 14 / MBC (±SD) by luminescence on day 21: 99% reduction in RLU vs T0; for time and/or concentration dependence of bactericidal activity: time-kill curves up to day 21; for change of MBC values over time: over 21 days, luminescence time-kill
[4] = system: M. tuberculosis H37Rv_LuxABCDE; assay: microbe, parasite or virus in culture; format: cell-based, Mycobacterium tuberculosis; conditions: day 7, SD from three independent experiments; for MBC: Mycobacterium tuberculosis, read-out: MBC (±SD) via CFU
[5] = system: M. tuberculosis H37Rv_LuxABCDE; assay: luminescence-based MIC assay (LMICA); conditions: for MIC (±SD) LMICA: 90% reduction of luminescence, 7 days, 7H12 medium, SD from three independent experiments
[6] = system: M. tuberculosis H37Rv_LuxABCDE; assay: microplate alamarBlue assay (MABA) MIC; conditions: 90% reduction of fluorescence, 7 days, 7H12 medium; SD from three independent experiments
[7] = system: M. tuberculosis H37Rv_LuxABCDE; assay: postantibiotic effect by luminescence (RLU); format: cell-based, Mycobacterium tuberculosis; conditions: 1.5 log10 RLU increase, 1:10,000-fold dilution; for PAE 1× MIC RLU: 3 h exposure at 1× MIC; for PAE 10× MIC RLU: 3 h exposure at 10× MIC; for PAE 100× MIC RLU: 3 h exposure at 100× MIC
[8] = system: M. tuberculosis H37Rv_LuxABCDE; format: cell-based, Mycobacterium tuberculosis; conditions: 1:10,000-fold dilution; for PAE 1× MIC CFU/ml: 3 h exposure at 1× MIC; for PAE 10× MIC CFU/ml: 3 h exposure at 10× MIC; for PAE 100× MIC CFU/ml: 3 h exposure at 100× MIC
[9] = system: J774 infected with M. tuberculosis strain Erdman; conditions: read-out: Literature reported EC90; cited from earlier work
[10] = Mycobacterium tuberculosis, H37RV, 72 h, EC90, day 3, J774 macrophages, read-out: Intracellular activity, EC90 (±SD) Day 3
[11] = Mycobacterium tuberculosis, H37RV, 120 h, EC90, day 5, J774 macrophages, read-out: Intracellular activity, EC90 (±SD) Day 5
[12] = Mycobacterium tuberculosis, H37RV, 168 h, EC90, day 7, J774 macrophages, read-out: Intracellular activity, EC90 (±SD) Day 7
[13] = Mycobacterium tuberculosis, 168 h, day 7, SD from three independent experiments, read-out: MBC (±SD) via luminescence
[14] = Mycobacterium tuberculosis, 336 h, day 14, read-out: MBC (±SD) by luminescence on day 14
[15] = Mycobacterium tuberculosis, 504 h, day 21, read-out: MBC (±SD) by luminescence on day 21
[16] = day 7, SD from three independent experiments
[17] = EC90, day 3, J774 macrophages, read-out: Intracellular activity, EC90 (±SD) Day 3
[18] = EC90, day 5, J774 macrophages, read-out: Intracellular activity, EC90 (±SD) Day 5
[19] = EC90, day 7, J774 macrophages, read-out: Intracellular activity, EC90 (±SD) Day 7

Molecule | EC90 [1, 10] [nM] | EC90 [1, 11] [nM] | EC90 [1, 12] [nM] | MBC [3, 13] [µM] | MBC [3, 14] [µM] | MBC [3, 15] [µM] | time and/or concentration dependence of bactericidal activity [3] | MBC [4] [µM] | onset of growth inhibition of internalized M. tuberculosis [1] | MIC (±SD) LMICA [5] | MIC (±SD) MABA [6] | MBC (±SD) via luminescence [3, 16] | change of MBC values over time [3] | also measured
NCC[C@H](O)C(=O)N[C@@H]1C[C@H](N)[C@@H](O[C@H]2O[C@H](CN)[C@@H](O)[C@H](O)[C@H]2O)[C@H](O)[C@H]1O[C@H]1O[C@H](CO)[C@@H](O)[C@H](N)[C@H]1O [Amikacin] | > 34000 | > 34000 | > 34000 | – | – | – | – | – | – | – | – | – | – | inhibition at 34 µM ([1]; Mycobacterium tuberculosis, H37RV, 72 h, day 3, 34 μM, read-out: percent inhibition at the highest tested concentration, intracellular activity Day 3): 4%; inhibition at 34 µM ([1]; Mycobacterium tuberculosis, H37RV, 120 h, day 5, 34 μM, read-out: percent inhibition at the highest tested concentration, intracellular activity Day 5): 34%; inhibition at 34 µM ([1]; Mycobacterium tuberculosis, H37RV, 168 h, day 7, 34 μM, read-out: percent inhibition at the highest tested concentration, intracellular activity Day 7): 49%; EC90 ([2]; EC90, high-content imaging on day 5): > 26000 nM
COc1nc2ccc(Br)cc2cc1[C@@H](c1ccccc1)[C@@](O)(CCN(C)C)c1cccc2ccccc12 [Bedaquiline] | 890 | 290 | 220 | 0.13 (≈ 0.0722 µg/mL) | 0.11 (≈ 0.0611 µg/mL) | 0.12 (≈ 0.0667 µg/mL) | primarily concentration dependent | 0.16 (≈ 0.0889 µg/mL) | early growth inhibition | 0.028 (0.01) μM | 0.021 (0.01) μM | – | – | Toxicity against infected J774, percent inhibition at the highest tested concentration (infected J774; day 7, 2 μM): 2 (7)* percent; EC90 ([2]; EC90): 100 nM
CC(C)/N=c1\cc2n(-c3ccc(Cl)cc3)c3ccccc3nc-2cc1Nc1ccc(Cl)cc1 [Clofazimine] | 19000 | 6690 | 3700 | 1.81 (≈ 0.857 µg/mL) | 0.82 (≈ 0.388 µg/mL) | 1.01 (≈ 0.478 µg/mL) | both time and concentration dependent | > 4 | early growth inhibition | – | 0.014 (0.02) μM | 1.8 (0.19) μM | decreased | Toxicity against infected J774, percent inhibition at the highest tested concentration (infected J774; day 7, 50 μM): 50 (45)* percent; EC90 ([2]; EC90): ~2100 nM
CC[C@@H](C)[C@@H](C(=O)N[C@@H]1C(=O)N(C)[C@@H]([C@@H](C)O)C(=O)N[C@@H](C(C)C)C(=O)N(C)[C@@H](CC(C)C)C(=O)N[C@@H](C(C)C)C(=O)N(C)[C@@H](C(C)C)C(=O)N(C)[C@@H](Cc2c[nH]c3cccc(OC)c23)C(=O)N[C@@H](C(C)C)C(=O)N[C@@H]([C@H](O)c2ccccc2)C(=O)N[C@@H](C(C)C)C(=O)O[C@@H]1C)N(C)C(=O)[C@@H](NC(=O)[C@H](C(C)C)N(C)C)C(C)C [Ecumicin] (NMe2Val-V[NMeaIle]T[NMeT]V[NMeL]V[NMeV][NMeTrp(4-OMe)]V[Phe(3R-OH)]V; ester 3-C) | – | – | – | – | – | – | mainly time dependent | – | early growth inhibition | 0.074 (0.002) μM | 0.081 (0.02) μM | 0.22 (0.1) μM | decreased | bactericidal or bacteriostatic activity [3]: strong bactericidal activity; also recorded: classical bactericidal dose response; MBC (±SD) by luminescence on day 14 ([3]; day 14): 0.20 (0.09) µM; MBC (±SD) by luminescence on day 21 ([3]; day 21): 0.12 (0.04) µM; MBC (±SD) via CFU [4]: 0.10 (±0.03) μM; EC90 [1, 17]: 740 nM; EC90 [1, 18]: 570 nM; EC90 [1, 19]: 280 nM; PAE 1× MIC RLU [7]: 0 h; PAE 10× MIC RLU [7]: 12 h; PAE 100× MIC RLU [7]: 96 h; PAE 1× MIC CFU/ml [8]: 0 h; PAE 10× MIC CFU/ml [8]: 10 h; PAE 100× MIC CFU/ml [8]: 80 h; Toxicity against infected J774, percent inhibition at the highest tested concentration (infected J774; day 7, 6.3 μM): 6.3 (11)* percent; EC90 [9]: ~120 nM
CC[C@@H](CO)NCCN[C@@H](CC)CO [Ethambutol] | > 50000 | 44000 | 23800 | 9.18 (≈ 1.88 µg/mL) | 3.17 (≈ 0.648 µg/mL) | 3.28 (≈ 0.67 µg/mL) | mainly time dependent | 7.9 (≈ 1.61 µg/mL) | late growth inhibition | 1.3 (0.38) μM | 2.0 (0.41) μM | 9.2 (2.7) μM | decreased | inhibition at 50 µM ([1]; Mycobacterium tuberculosis, H37RV, 72 h, day 3, 50 μM, read-out: percent inhibition at the highest tested concentration, intracellular activity Day 3): 68%; Toxicity against infected J774, percent inhibition at the highest tested concentration (infected J774; day 7, 50 μM): 50 (0)* percent; EC90 ([2]; EC90): 16700 nM
CC(=O)NC[C@H]1CN(c2ccc(N3CCOCC3)c(F)c2)C(=O)O1 [Linezolid] | – | – | – | 9.6 (≈ 3.24 µg/mL) | 7 (≈ 2.36 µg/mL) | 6 (≈ 2.02 µg/mL) | mainly time dependent | > 29 | – | 1.7 (0.23) μM | 1.7 (0.10) μM | – | decreased | –
COc1c(N2C[C@@H]3CCCN[C@@H]3C2)c(F)cc2c(=O)c(C(=O)O)cn(C3CC3)c12 [Moxifloxacin] | – | – | – | 0.91 (≈ 0.365 µg/mL) | 0.42 (≈ 0.169 µg/mL) | 0.46 (≈ 0.185 µg/mL) | both time and concentration dependent | 0.753 (≈ 0.302 µg/mL) | – | 0.13 (0.02) μM | 0.24 (0.04) μM | – | decreased | –
O=[N+]([O-])c1cn2c(n1)OC[C@@H](OCc1ccc(OC(F)(F)F)cc1)C2 [Pretomanid] | – | – | – | 0.63 (≈ 0.226 µg/mL) | 12.5 (≈ 4.49 µg/mL) | 13 (≈ 4.67 µg/mL) | both time and concentration dependent | 0.5 (≈ 0.18 µg/mL) | – | 0.46 (0.01) μM | 0.49 (0.02) μM | – | increase | –
C/C=C/C[C@@H]1NC(=O)[C@H](CC(C)C)N2C(=O)[C@H](C[C@H](C)C2O)N(C)C(=O)[C@H](C)NC(=O)[C@H](Cc2ccc(O)c([N+](=O)[O-])c2)NC(=O)[C@H](CC(C)C)N(C)C(=O)[C@H](Cc2cn(C(C)(C)C3CO3)c3ccccc23)NC1=O (some centres unmarked) [Rufomycin] | – | – | – | – | – | – | mainly time dependent | – | – | 0.010 (0.001) μM | 0.032 (0.012) μM | >1^c μM | decreased | bactericidal or bacteriostatic activity [3]: bacteriostatic; MBC ([3]; day 7, SD from three independent experiments, read-out: MBC (±SD) via luminescence): > 1 µM; MBC ([3]; day 14, read-out: MBC (±SD) by luminescence on day 14): > 1 µM; MBC (±SD) via CFU [4]: >1^b μM; EC90 [1, 17]: > 10000 nM; EC90 [1, 18]: 3060 nM; EC90 [1, 19]: 1520 nM; percent inhibition at the highest tested concentration, intracellular activity Day 3 ([1]; day 3, 10 μM): 69%; PAE 1× MIC RLU [7]: 0 h; PAE 10× MIC RLU [7]: 40 h; PAE 100× MIC RLU [7]: 96 h; PAE 1× MIC CFU/ml [8]: 0 h; PAE 10× MIC CFU/ml [8]: 48 h; PAE 100× MIC CFU/ml [8]: 110 h; Toxicity against infected J774, percent inhibition at the highest tested concentration (infected J774; day 7, 10 μM): 10 (8)* percent; EC90 [9]: ~100 nM; MIC lower than ecumicin ([5]; ratio of MICs of Table 1): 7 fold
[H]/N=C(/N)N[C@H]1[C@H](O)[C@@H](O)[C@H](O[C@@H]2O[C@@H](C)[C@](O)(C=O)[C@H]2O[C@@H]2O[C@@H](CO)[C@H](O)[C@@H](O)[C@@H]2NC)[C@@H](N/C(N)=N\[H])[C@@H]1O [Streptomycin] | – | – | – | 0.3 (≈ 0.174 µg/mL) | 0.5 (≈ 0.291 µg/mL) | 0.9 (≈ 0.523 µg/mL) | both time and concentration dependent | 0.37 (≈ 0.215 µg/mL) | – | 0.12 (0.04) μM | 0.12 (0.02) μM | – | – | –
Capreomycin | – | – | – | – | – | – | – | – | – | 0.53 (0.07) μM | 0.70 (0.03) μM | 1.3 (0.4) μM | increase | MBC (±SD) by luminescence on day 14 ([3]; day 14): 6.94 (3.8) µM; MBC (±SD) by luminescence on day 21 ([3]; day 21): 13.65 (2.34) µM; MBC (±SD) via CFU [4]: 1.7 (0.9) μM
